Measurements as given in PMC9516332 (Frontiers in Oncology, 2022).
Where two headings read alike, the source gives them in different places.

Key:
[1] = system: 134 cancer cell lines
[2] = system: AP-1060 (ETV6-NTRK3); assay: Cell viability assay; conditions: read-out: IC50 in cell proliferation assay
[3] = system: 134 cancer cell lines; assay: Cell viability assay (ATPlite, 72 hours), IC50 on cancer cell line panel

CCCS(=O)(=O)Nc1ccc(F)c(C(=O)c2c[nH]c3ncc(-c4ccc(Cl)cc4)cc23)c1F [vemurafenib]
IC50 [1]: > 31.6 µM
IC50 [2]: 31.6 µM
IC50 ([3]; HEC-6, read-out: IC50 in cell proliferation assay, HEC-6 cell line (EGFR p.A289V)): > 31.6 µM
IC50 ([3]; Homo sapiens, 769-P, read-out: IC50 in cell proliferation assay, cell line 769-P): > 31.6 µM
IC50 ([3]; Homo sapiens, 786-0, read-out: IC50 in cell proliferation assay, cell line 786-O): 25.1 µM
IC50 ([3]; Homo sapiens, A 172, read-out: IC50 in cell proliferation assay, cell line A-172): > 31.6 µM
IC50 ([3]; Homo sapiens, A204, read-out: IC50 in cell proliferation assay, cell line A-204): > 31.6 µM
IC50 ([3]; Homo sapiens, A498, read-out: IC50 in cell proliferation assay, cell line A-498): 21.6 µM
IC50 ([3]; Homo sapiens, A549, read-out: IC50 in cell proliferation assay, cell line A-549): 31.2 µM
IC50 ([3]; Homo sapiens, A704, read-out: IC50 in cell proliferation assay, cell line A-704): > 31.6 µM
IC50 ([3]; Homo sapiens, A-375, read-out: IC50 in cell proliferation assay, cell line A-375 (BRAF p.V600E)): 1.76 µM
IC50 ([3]; Homo sapiens, A-427, read-out: IC50 in cell proliferation assay, cell line A-427): > 31.6 µM
IC50 ([3]; Homo sapiens, ACHN, read-out: IC50 in cell proliferation assay, cell line ACHN): 20.1 µM
IC50 ([3]; Homo sapiens, AN3-CA, read-out: IC50 in cell proliferation assay, cell line AN3-CA (FGFR2 p.N549K)): > 31.6 µM
IC50 ([3]; Homo sapiens, ASPC1, read-out: IC50 in cell proliferation assay, cell line AsPC-1): > 31.6 µM
IC50 ([3]; Homo sapiens, AU565, read-out: IC50 in cell proliferation assay, cell line AU565 (ERBB2 amplification)): > 31.6 µM
IC50 ([3]; Homo sapiens, BT-20, read-out: IC50 in cell proliferation assay, cell line BT-20): > 31.6 µM
IC50 ([3]; Homo sapiens, BT-474, read-out: IC50 in cell proliferation assay, cell line BT-474 (ERBB2 amplification)): > 31.6 µM
IC50 ([3]; Homo sapiens, BT-549, read-out: IC50 in cell proliferation assay, cell line BT-549): 31.2 µM
IC50 ([3]; Homo sapiens, BXPC-3, read-out: IC50 in cell proliferation assay, cell line BxPC-3): 28.2 µM
IC50 ([3]; Homo sapiens, C-33-A, read-out: IC50 in cell proliferation assay, cell line C-33 A): > 31.6 µM
IC50 ([3]; Homo sapiens, CAL-27, read-out: IC50 in cell proliferation assay, cell line CAL-27): > 31.6 µM
IC50 ([3]; Homo sapiens, CCF-STTG1, read-out: IC50 in cell proliferation assay, cell line CCF-STTG1): > 31.6 µM
IC50 ([3]; Homo sapiens, CCRF-CEM, read-out: IC50 in cell proliferation assay, cell line CCRF-CEM): 27.6 µM
IC50 ([3]; Homo sapiens, COLO 205, read-out: IC50 in cell proliferation assay, cell line COLO 205 (BRAF p.V600E)): 0.744 µM
IC50 ([3]; Homo sapiens, COLO-829, read-out: IC50 in cell proliferation assay, cell line COLO 829 (BRAF p.V600E)): 2.22 µM
IC50 ([3]; Homo sapiens, DLD-1, read-out: IC50 in cell proliferation assay, cell line DLD-1): > 31.6 µM
IC50 ([3]; Homo sapiens, DU-4475, read-out: IC50 in cell proliferation assay, cell line DU4475 (BRAF p.V600E)): 1.83 µM
IC50 ([3]; Homo sapiens, Daoy, read-out: IC50 in cell proliferation assay, cell line Daoy): > 31.6 µM
IC50 ([3]; Homo sapiens, DoTc2-4510, read-out: IC50 in cell proliferation assay, cell line DoTc2 4510): > 31.6 µM
IC50 ([3]; Homo sapiens, EOL1, read-out: IC50 in cell proliferation assay, cell line EoL-1 (FIP1L1-PDGFRA)): 1.62 µM
IC50 ([3]; Homo sapiens, FaDu, read-out: IC50 in cell proliferation assay, cell line FaDu): > 31.6 µM
IC50 ([3]; Homo sapiens, G-361, read-out: IC50 in cell proliferation assay, cell line G-361 (BRAF p.V600E)): 3.25 µM
IC50 ([3]; Homo sapiens, HCC827, read-out: IC50 in cell proliferation assay, cell line HCC827 (EGFR exon19del)): > 31.6 µM
IC50 ([3]; Homo sapiens, HCC4006, read-out: IC50 in cell proliferation assay, cell line HCC4006 (EGFR exon19del)): > 31.6 µM
IC50 ([3]; Homo sapiens, HCT-15, read-out: IC50 in cell proliferation assay, cell line HCT 15): > 31.6 µM
IC50 ([3]; Homo sapiens, HCT-116, read-out: IC50 in cell proliferation assay, cell line HCT 116): > 31.6 µM
IC50 ([3]; Homo sapiens, HEC-1, read-out: IC50 in cell proliferation assay, HEC-1 cell line): > 31.6 µM
IC50 ([3]; Homo sapiens, HEC-1B, read-out: IC50 in cell proliferation assay, HEC-1-B cell line (EGFR p.A864V)): > 31.6 µM
IC50 ([3]; Homo sapiens, HL-60, read-out: IC50 in cell proliferation assay, HL-60 cell line): > 31.6 µM
IC50 ([3]; Homo sapiens, HT, read-out: IC50 in cell proliferation assay, HT cell line): > 31.6 µM
IC50 ([3]; Homo sapiens, HT-1080, read-out: IC50 in cell proliferation assay, HT-1080 cell line): 9.43 µM
IC50 ([3]; Homo sapiens, Hs746T, read-out: IC50 in cell proliferation assay, Hs 746.T cell line (MET exon14skip + amplification)): > 31.6 µM
IC50 ([3]; Homo sapiens, Hs-578T, read-out: IC50 in cell proliferation assay, Hs 578T cell line): 30.6 µM
IC50 ([3]; Homo sapiens, HuTu80, read-out: IC50 in cell proliferation assay, HuTu 80 cell line): > 31.6 µM
IC50 ([3]; Homo sapiens, J82, read-out: IC50 in cell proliferation assay, J82 cell line): > 31.6 µM
IC50 ([3]; Homo sapiens, Jurkat E6.1, read-out: IC50 in cell proliferation assay, Jurkat E6.1 cell line): 28.3 µM
IC50 ([3]; Homo sapiens, K562, read-out: IC50 in cell proliferation assay, K-562 cell line): > 31.6 µM
IC50 ([3]; Homo sapiens, KATO III, read-out: IC50 in cell proliferation assay, KATO III cell line (FGFR2 amplification)): 20.7 µM
IC50 ([3]; Homo sapiens, KG-1, read-out: IC50 in cell proliferation assay, KG-1 cell line (FGFR1OP2-FGFR1)): > 31.6 µM
IC50 ([3]; Homo sapiens, KLE, read-out: IC50 in cell proliferation assay, KLE cell line): > 31.6 µM
IC50 ([3]; Homo sapiens, KMS-11, read-out: IC50 in cell proliferation assay, KMS-11 cell line (FGFR3 p.Y373C)): 29.5 µM
IC50 ([3]; Homo sapiens, KU812, read-out: IC50 in cell proliferation assay, Ku812 cell line): 28.5 µM
IC50 ([3]; Homo sapiens, Kasumi 1, read-out: IC50 in cell proliferation assay, Kasumi-1 cell line (KIT p.N822K)): > 31.6 µM
IC50 ([3]; Homo sapiens, LC-2-ad, read-out: IC50 in cell proliferation assay, LC-2/ad cell line (CCDC6-RET)): > 31.6 µM
IC50 ([3]; Homo sapiens, LNCaP-Clone-FGC, read-out: IC50 in cell proliferation assay, LNCaP clone FGC cell line): > 31.6 µM
IC50 ([3]; Homo sapiens, LS174T, read-out: IC50 in cell proliferation assay, LS174T cell line): > 31.6 µM
IC50 ([3]; Homo sapiens, LS-411N, read-out: IC50 in cell proliferation assay, LS411N cell line (BRAF p.V600E)): 1.28 µM
IC50 ([3]; Homo sapiens, LoVo, read-out: IC50 in cell proliferation assay, LoVo cell line): > 31.6 µM
IC50 ([3]; Homo sapiens, MCF7, read-out: IC50 in cell proliferation assay, MCF-7 cell line): > 31.6 µM
IC50 ([3]; Homo sapiens, MDA-MB-231, read-out: IC50 in cell proliferation assay, MDA-MB-231 cell line): > 31.6 µM
IC50 ([3]; Homo sapiens, MDA-MB-453, read-out: IC50 in cell proliferation assay, MDA-MB-453 cell line): > 31.6 µM
IC50 ([3]; Homo sapiens, MDA-MB-468, read-out: IC50 in cell proliferation assay, MDA-MB-468 cell line): > 31.6 µM
IC50 ([3]; Homo sapiens, MG-63, read-out: IC50 in cell proliferation assay, MG-63 cell line): > 31.6 µM
IC50 ([3]; Homo sapiens, MIA PaCa-2, read-out: IC50 in cell proliferation assay, MIA PaCa-2 cell line): > 31.6 µM
IC50 ([3]; Homo sapiens, MKN-45, read-out: IC50 in cell proliferation assay, MKN45 cell line (MET amplification)): > 31.6 µM
